Assay results reported in patent publication US5053398A, “Sulfated homopolysaccharides as anti-AIDS virus agents” (Taito Co., Ltd., priority 1988, dated 1991).
“Also recorded” adds a separate entry of the source. Read-outs that look alike come from different tables or passages of the source.

Key:
AIDS virus [1] = details: background; cited from earlier work
[2] = system: reverse transcriptase of AIDS virus; details: background; cited from earlier work
[3] = system: AIDS virus (virus derived from Tall-1/HTLV-III) in Molt-4/cl. No. 8 cells; test: Anti-AIDS virus activities, reverse transcriptase activities (Molt-4/cl. No. 8 cells); assay type: cell-based, HIV (human immunodeficiency virus)
Description: Virus derived from Tall-1/HTLV-III were adsorbed on Molt-4/cl. No. 8 cells. Then, the cells were washed with a culture medium to remove virus not adsorbed on the cells. The cells thus obtained were subjected to the following test.
[…] Culturing was conducted for 8 days, and cytopathic effects (CPE) by virus were observed. Further, on the 8th day, the supernatant of the culture medium was sampled and subjected to the measurement of reverse transcriptase activities. The cells were subjected to an indirect immunofluorescence assay to detect the virus antigen.
The anti-AIDS virus activities were studied with respect to the sulfates of scleroglucan and pendulan thus obtained, in accordance with the method as used in Example 1(3).
Schizophyllans having different molecular weights were sulfated in accordance with method A in Example 1 (polysaccharide: 0.5 g; pyridine/sulfuric anhydride complex: 5 g; reaction time: 5 hours). The anti-AIDS virus activities were studied with respect to the polysaccharide sulfates thus obtained, in accordance with the method as described in Example 1(3). As the control, dextran sulfate was used.

[4] = system: AIDS virus in human peripheral lymphocytes; test: Anti-AIDS virus activities in a human peripheral blood lymphocytes system, reverse transcriptase activities; assay type: cell-based, HIV (human immunodeficiency virus); details: Case 2, 100 μg/ml
Description: In the foregoing Examples, the anti-AIDS virus activities of schizophyllan sulfates were studied in a subcultured cell line. In this Example, a test was conducted for the effects of schizophyllan sulfates for suppressing proliferation of AIDS virus in a human peripheral lymphocytes system. Lymphocytes were separated from peripheral blood of an AIDS patient by Ficoll-Paque Separation, washed three times with a serum-free culture medium and suspended in a culture medium containing 10% of FCS. Adsorbable cells were removed, and suspended cells were collected and suspended in a culture medium. Then, PHA and IL-2 were added thereto. Healthy human lymphocytes were prepared 3 days ahead by the above-mentioned method. Into each well of a microplate having 24 wells, 10^6 /1 ml of patient's lymphocytes, a culture medium, 10^6 /1 ml of healthy human lymphocytes and a schizophyllan sulfate solution were introduced, mixed and cultured. On the seventh day and eleventh day after initiation of the culturing, the supernatant was sampled and subjected to the measurement of reverse transcriptase activities. Into each well, a sampled supernatant and the same amount of a culture medium were introduced and culturing was continued.

AIDS virus [5] = test: Anti-AIDS virus activities (general statements, test not specified); set-up: species or system HIV (human immunodeficiency virus); details: general findings of the inventors
AIDS virus in MT-4 cells = test: Anti-AIDS virus activities, reverse transcriptase activities (MT-4 cells); assay type: cell-based, HIV (human immunodeficiency virus); details: 10 days, virus (-) 2481, virus (+) 348764
Description: Further, anti-AIDS virus activities of schizophyllan sulfates were studied by using MT-4 cells. Cells were prepared in the same manner as in Example 1(3), and into each well, 1 ml of a cell suspension containing 14×10^4 cells/ml, 1 ml of a culture medium and a sample solution were added, followed by culturing for 10 days. The anti-AIDS virus activities of schizophyllan sulfates were studied by the observation of the cytopathic effects, by the measurement of reverse transcriptase activities and by the indirect immunofluorescence assay.

Sarcoma 180 cells = test: Anti-tumor activities, Sarcoma 180 in mice; assay type: in vivo
Description: 2×10^6 Sarcoma 180 cells were transplanted subcutaneously into the groins of mice. Twenty four hours later, 0.05 ml of a 0.5% PBS solution of schizophyllan sulfate was administered to a rear femoral muscle. Thirty days later, the mice were killed and dissected, and tumors were taken out and weighed. The tumor inhibition rates were culculated by the following equation. [formula] where A and B denote the average tumor weights (g) of the control group and the treated group.
Each group consisted of 6 mice. To the control group, PBS was administered in the same amount as in the tested group.

[6] = system: spleen of a mouse (spleen cells); test: Mitogenic activities (3H-thymidine uptake, mouse spleen cells); assay type: cell-based
Description: A spleen of a mouse was aseptically taken out and dispersed in a culture medium to obtain a cell suspension containing 3×10^6 cells/ml. The cells were subdivided into wells of a 96 well-microplate so as to adjust the cell number in each well to 3×10^5. A culture medium and a sample were added to each well, followed by culturing for 3 days. On the third day, 0.5 μCi of ^3 H-thymidine was added to each well, and culturing was conducted for further 7 hours. Then, the cells were harvested and thoroughly washed, and the amount of ^3 H-thymidine taken into the cells was measured by a liquid scintillation counter.

For `NC(=O)c1ncn([C@@H]2O[C@H](CO)[C@@H](O)[C@H]2O)n1` [ribavirin], the “anti-AIDS virus activities” value (AIDS virus [1]) is listed as “known to exibit anti-AIDS effects”.

In the case of `Cc1ccc(C(=O)Nc2ccc(S(=O)(=O)O)c3cc(S(=O)(=O)O)cc(S(=O)(=O)O)c23)cc1NC(=O)c1cccc(NC(=O)Nc2cccc(C(=O)Nc3cc(C(=O)Nc4ccc(S(=O)(=O)O)c5cc(S(=O)(=O)O)cc(S(=O)(=O)O)c45)ccc3C)c2)c1` [suramin], the “anti-AIDS virus activities” value (AIDS virus [1]) is listed as “known to exibit anti-AIDS effects”.

For .iota.-carrageenan, the “inhibition of the reverse transcriptase of AIDS virus” value (shortened to “inhibition … of AIDS virus”) [2] is given as “have similar physiological activities”.

For Dextran sulfate, the “anti-AIDS virus activities” value (AIDS virus [1]) is listed as “have anti-AIDS virus activities”, the “Reverse transcriptase activities (CPM)” value ([3]; 100 μg/ml, Molt-4/cl. No. 8 cells, 8 days, Table 3, virus (-) 199, virus (+) 27557) is listed as 1947 ± 64 CPM and the “Reverse transcriptase activities (CPM)” value ([3]; 100 μg/ml, Table 8, virus (-) 621, virus (+) 51344) is listed as 1781 ± 169 CPM. The “Reverse transcriptase activities (CPM)” value ([3]; 100 μg/ml, Table 9, virus (-) 854, virus (+) 49291) was 1738 ± 251 CPM, the “Reverse transcriptase activities (CPM)” value ([3]; 500 μg/ml, Molt-4/cl. No. 8 cells, 8 days, Table 3, virus (-) 199, virus (+) 27557) was 703 ± 56 CPM and the “Reverse transcriptase activities (CPM)” value ([3]; 500 μg/ml, Table 8, virus (-) 621, virus (+) 51344) was 923 ± 32 CPM. The “Reverse transcriptase activities (CPM)” value ([3]; 500 μg/ml, Table 9, virus (-) 854, virus (+) 49291) was 923 ± 87 CPM, the “Reverse transcriptase activities (CPM)” value ([4]; 7th day, no addition 2872) was 1789 ± 53 CPM and the “Reverse transcriptase activities (CPM)” value ([4]; 11th day, no addition 80436) was 42792 ± 14582 CPM. For the same compound, the “Reverse transcriptase activities (CPM)” value ([4]; 18th day, no addition 67665) was 280741 ± 31039 CPM, the “anti-AIDS virus activities” value (AIDS virus [5]) was “stronger activities than the sulfates of e.g. mannan, pullulan and alginic acid; also recorded: have anti-AIDS virus activities” and the “Reverse transcriptase activities (CPM)” value (AIDS virus in MT-4 cells; 100 μg/ml) was 22317 ± 4502 CPM. For the same compound, the “Reverse transcriptase activities (CPM)” value (AIDS virus in MT-4 cells; 500 μg/ml) was 18501 ± 2249 CPM.

In the case of Schizophyllan, the “Control rate (%) (tumor inhibition rate)” value (Sarcoma 180 cells; 0.05 ml of 0.5% PBS solution, rear femoral muscle, 30 days) is reported as 99.0%, the “Average weight (g) of tumor (wt ± S.E.)” value (Sarcoma 180 cells; 0.05 ml of 0.5% PBS solution, rear femoral muscle, 30 days, PBS control 4.07) is reported as 0.04 ± 0.016 g and the “anti-tumor activities” value (Sarcoma 180 cells; mouse, in vivo) is reported as “having anti-tumor activities”. The “mitogenic activities” value [6] was “not observed” and the “Mitogenic activities, Count (CPM), control” value ([6]; control substances, concentration not stated (printed under the 100 μg/ml column), Table 2) was 1981 ± 184 CPM.

In the case of chondroitin sulfate, the “inhibition … of AIDS virus” value [2] is given as “have similar physiological activities”.

In the case of dextran, the “anti-AIDS virus activities” value (AIDS virus [1]) is listed as “having no anti-AIDS virus activities”.

For heparin, the “inhibition … of AIDS virus” value [2] is given as “have similar physiological activities”.

For interferon, the “anti-AIDS virus activities” value (AIDS virus [1]) is given as “known to exibit anti-AIDS effects”.

In the case of k-carrageenan, the “inhibition … of AIDS virus” value [2] is listed as “have similar physiological activities”.

In the case of lentinan sulfate, the “anti-AIDS virus activities” value (AIDS virus [5]) is reported as “have anti-AIDS virus activities”.

For λ-carrageenan, the “inhibition … of AIDS virus” value [2] is given as “have similar physiological activities”.
